The structures appear in SMILES notation.

Assay [1] has as its target T1, PAC1R (pituitary adenylate cyclase-activating polypeptide receptor type 1) (Homo sapiens, UniProt P41586).
T1 construct: expressed in transfected cells
T1 sequence (P41586 21-468): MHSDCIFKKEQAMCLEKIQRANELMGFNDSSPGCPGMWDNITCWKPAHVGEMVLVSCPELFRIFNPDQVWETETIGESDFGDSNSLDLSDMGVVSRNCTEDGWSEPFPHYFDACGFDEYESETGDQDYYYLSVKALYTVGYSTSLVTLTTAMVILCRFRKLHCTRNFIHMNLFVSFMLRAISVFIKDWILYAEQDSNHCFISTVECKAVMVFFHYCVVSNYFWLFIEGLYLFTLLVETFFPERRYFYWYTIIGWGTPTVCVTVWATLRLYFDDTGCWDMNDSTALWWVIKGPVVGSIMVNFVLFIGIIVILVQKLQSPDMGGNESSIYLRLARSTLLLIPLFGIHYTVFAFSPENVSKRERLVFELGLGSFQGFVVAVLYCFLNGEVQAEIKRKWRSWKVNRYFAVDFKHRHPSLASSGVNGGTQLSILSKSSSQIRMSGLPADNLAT
The assay is described as follows: Inhibition of agonist-stimulated cAMP production in CHO cells expressing PAC1R. Type of assay: cell-based. Conditions: PAC1-stimulated. The source says:
Transfected Chinese hamster ovary (CHO) cell lines were acquired and maintained as previously described, [20]. These included separate cell lines stably expressing human GCGR (hGCGR), mouse GCGR, rhesus GGCR, glucose-dependent insulinotropic peptide receptor (GIPR), GLP-1 receptor (GLP-1R), pituitary adenylate cyclase-activating polypeptide receptor type 1 (PAC1R), and vasoactive adenylate cyclase-activating polypeptide receptor type 2 (VPAC2R). Inhibition of glucagon binding to hGCGR was assayed in cell membranes prepared from the line of CHO cells that expressed the hGCGR. Functional antagonism was assayed by measuring the production of cAMP in intact CHO cells stimulated by agonists specific for their cognate receptors (i.e., glucagon for GCGR-expressing cell lines, GIP for the GIPR-expressing line, etc.). Primary human hepatocytes were obtained from In Vitro Technologies (Baltimore, MD) and glucagon-stimulated glycogenolysis was studied in these as previously described.

Assay [2] has as its target T2, rhesus GCGR (Macaca mulatta, UniProt A0A1D5QZY8).
T2 construct: expressed in transfected cells
The assay can be described thus: Inhibition of glucagon-stimulated cAMP production in CHO cells expressing rhesus GCGR. Type of assay: cell-based.
Protocol: Transfected Chinese hamster ovary (CHO) cell lines were acquired and maintained as previously described [17], [20]. These included separate cell lines stably expressing human GCGR (hGCGR), mouse GCGR, rhesus GGCR, glucose-dependent insulinotropic peptide receptor (GIPR), GLP-1 receptor (GLP-1R), pituitary adenylate cyclase-activating polypeptide receptor type 1 (PAC1R), and vasoactive adenylate cyclase-activating polypeptide receptor type 2 (VPAC2R). […] Functional antagonism was assayed by measuring the production of cAMP in intact CHO cells stimulated by agonists specific for their cognate receptors (i.e., glucagon for GCGR-expressing cell lines, GIP for the GIPR-expressing line, etc.).

T2 sequence (A0A1D5QZY8 27-491): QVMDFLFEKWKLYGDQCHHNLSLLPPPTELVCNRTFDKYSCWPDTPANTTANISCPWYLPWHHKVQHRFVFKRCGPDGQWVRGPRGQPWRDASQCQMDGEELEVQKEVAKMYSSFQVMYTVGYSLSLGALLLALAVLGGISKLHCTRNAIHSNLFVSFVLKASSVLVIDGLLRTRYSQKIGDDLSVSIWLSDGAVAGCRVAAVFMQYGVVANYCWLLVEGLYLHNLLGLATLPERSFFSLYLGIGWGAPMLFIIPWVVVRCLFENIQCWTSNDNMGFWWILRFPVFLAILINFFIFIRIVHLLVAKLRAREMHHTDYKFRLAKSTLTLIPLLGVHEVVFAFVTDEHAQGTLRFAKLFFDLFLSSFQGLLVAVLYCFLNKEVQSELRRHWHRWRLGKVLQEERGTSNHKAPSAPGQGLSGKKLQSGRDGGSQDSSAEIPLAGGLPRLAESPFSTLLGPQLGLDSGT

Take `COc1ccc2cc(-c3cc(-c4cc(C(F)(F)F)ccc4F)nn3[C@@H](C)c3ccc(C(=O)NCCC(=O)O)cc3)ccc2c1` [GRA1, N-[4-((1S)-1-{3-(2-fluoro-5-trifluoromethylphenyl)-5-[6-methoxynaphth-2-yl]-1H-pyrazol-1-yl}ethyl)benzoyl]-β-alanine]: the IC50 in assay [1] stood at 7.85 µM; in assay [2], 0.015 µM.

The values are drawn from paper PMC3501516, “Anti-Diabetic Efficacy and Impact on Amino Acid Metabolism of GRA1, a Novel Small-Molecule Glucagon Receptor Antagonist” (PLoS ONE, 2012).
